From patent publication US20250057928A1, “VACCINE COMPOSITION FOR INDUCING ANTI-IL-23 ANTIBODY” (OSAKA UNIVERSITY, priority 2021, published 2025)
Where no end group is shown, it is not given here.

How the values were obtained:
BALB/c mice = assay: rmIL-23-induced mouse auricle inflammation model; type: in vivo
Experimental: AJP001 conjugated peptide (SEQ ID NO: 2) was dissolved in physiological saline and intradermally administered to BALB/c mice (female, 6-week-old, N=8) at 1 mg/body 3 times at two-week intervals. At the time point of 6 weeks after the initial administration, rmIL-23 was administered intradermally to the ear to induce inflammation. With the first administration as Day 0, rmIL-23 was administered 4 times in total on Days 2, 4, and 7. As a control group, an rmIL-23 group without administration of peptide was provided. Auricular thickness was measured using a thickness gauge on each day of administration of rmIL-23 and on Day 9. In order to measure the mRNA expression of IL-17A, IL-22, IL-1β, LCN-2, and CXCL-2 in the auricle, the auricle was collected on the third day of rmIL-23 administration under the same conditions. For mRNA evaluation, a normal group without administration of rmIL-23 was set. […] Using TaqMan Gene Expression Assays (S18: Mm02601777_g1; CXCL-2: Mm00436450_m1; IL-17A: Mm00439618_m1; IL-22: Mm01226722_m1; IL-1β: Mm00434228_m1; LCN-2: Mm01324470_m1), Ct value was measured using Applied Biosystems 7900HT Fast Real Time PCR System. The mRNA expression level was calculated by the ΔΔCt method and evaluated as a relative value to the normal group. […]

BALB/c mouse = assay: TNBS-induced mouse colitis model; type: in vivo
Experimental: AJP001 conjugated peptide (SEQ ID NO: 2) was dissolved in physiological saline, mixed with an equal amount of 1 mg/mL Type-B/K CpG-ODN K3 (GeneDesign, Inc., hereinafter sometimes to be referred to as “CpG”), and subcutaneously administered to BALB/c mouse (female, 6-week-old, N=10) at 1 mg/body 3 times at two-week intervals. At the time point of 6 weeks after the initial administration, TNBS dissolved in 30% ethanol was administered by intestinal infusion at 2 mg/body. With the first administration of TNBS as Day 0, TNBS was administered by intestinal infusion at 3 mg/body on Day 7 to induce colitis. A Normal group and a 30% EtOH group, each without administration of TNBS, a Saline/TNBS group with administration of TNBS but without administration of the peptide, and a CpG/INBS group with administration of only an adjuvant were provided. Body weight was measured on Days 1, 2, 3, 4, 7, 8, 9, and 10, including the day of TNBS administration. After euthanasia by cardiac blood collection under deep anesthesia on Day 10, the obtained serum was measured for the antibody titer (GMT) and binding to mIL-23 by the ELISA method (same method as in Example 1). In addition, large intestinal tissue was collected, the length (cm) of the large intestine was measured, a 2 cm region from the anus was subjected to the measurement of cytokine mRNA expression, and a 2 to 4 cm region was subjected to histopathological examination. As to the expression of cytokine mRNA, the region was bead disrupted under ice-cooling, total RNA was extracted using RNeasy Fibrous Tissue Kit (Qiagen), and then cDNA of the extracted RNA was prepared using High-Capacity cDNA Reverse Transcription Kit ([…]). Using TaqMan Gene Expression Assays (GAPDH: Mm99999915_g1; IL-17A: Mm00439618_m1; IL-17F:Mm00521423_m1; IL-22:Mm01226722_m1; IL-23:Mm00518984_m1; IL-1β:Mm00434228_m1), Ct value was measured using Applied Biosystems 7900HT Fast Real Time PCR System. The mRNA expression level was calculated by the ΔΔCt method and evaluated as a relative value to the normal group. For histopathological examination, the collected large intestine was fixed with 10% neutral formalin, and then a specimen was prepared according to a conventional method and stained with HE. The HE-stained specimen was observed under a microscope, scored for inflammatory cell infiltration (Grade: 0-3), depth of colorectal tissue damage (Grade: 0-3), and range of colorectal mucosal damage (Grade: 0-4), and the total score was calculated.

hairless rats = assay: Psoriasis model, 2% imiquimod (IMQ) applied to auricle of hairless rats; type: in vivo, rat; conditions: 1 mg/body 3 times
Experimental: AJP001 conjugated peptide (SEQ ID NO: 2) was dissolved in physiological saline and intradermally administered to hairless rats (female, 6-week-old, N=6) at 1 mg/body 3 times at two-week intervals. From 6 weeks after the initial administration, 2% imiquimod (IMQ) was intermittently applied to the auricle 4 times in total at 1-day intervals to create a psoriasis model. A 2% IMQ application group was provided as a control group. The drug efficacy was evaluated by measuring the thickness of the auricle with a thickness gauge (Mitutoyo Corporation) from the first day of IMQ application to the eighth day. Furthermore, on the 8th day, histopathological evaluation of the auricular tissue was performed. Specifically, the collected auricle was fixed with 10% neutral formalin, and then a specimen was prepared according to a conventional method and stained with HE. HE-stained specimens were observed under a microscope, and inflammatory cell infiltration, edema, and thickness were scored in 4 stages (0: normal, 1: mild, 2: intermediate, 3: severe) and the total score was calculated. Furthermore, the antibody titer (GMT) of the serum at the time point of 6 weeks was measured by the ELISA method (same method as in Example 1. Anti-Rat IgG (GE Healthcare) was used as the secondary antibody). […]

SEQ ID NO 2: AJP001-Ahx-B cell epitope peptide conjugate; epitope SSSQQWQR (mouse 152-159) (not fully specified (N-terminus); listed as Mus musculus)
suppressive action: mRNA expression of IL-17A, IL-22, IL-1β, LCN-2, and CXCL-2 in auricle (BALB/c mice; 1 mg/body 3 times, third day of rmIL-23 administration) | increase in auricular thickness (BALB/c mice; 1 mg/body intradermal 3 times, rmIL-23 intradermal to ear from week 6) | shortened large intestine length (BALB/c mouse; 1 mg/body with CpG 3 times, Day 10) | inflammatory changes in large intestine tissues (BALB/c mouse; 1 mg/body with CpG 3 times, Day 10, HE) | mRNA expression of IL-17A, IL-22, and IL-1β in tissues (BALB/c mouse; 1 mg/body with CpG 3 times, Day 10, large intestinal tissue) | body weight loss (BALB/c mouse; BALB/c mice, 1 mg/body subcutaneous with CpG-ODN K3, 3 times, TNBS Day 0 and Day 7, vs Saline/TNBS or CpG/TNBS) | increase in auricular thickness (hairless rats; 2% IMQ 4 times from week 6, day 1 to 8) | inflammatory changes of tissue (auricle, HE score) (hairless rats; 2% IMQ, day 8)
